Source: the kinase profiling compilation of Christmann-Franck et al. (2016)

Columns and labels:
Settings in all cases: compound 10.0 µM
[1] = molecular target: ULK3 (human) (UniProt Q6PHR2)
[2] = molecular target: HIPK4 (human) (UniProt Q8NE63)
[3] = molecular target: MAP3K3 (human) (UniProt Q99759)
[4] = molecular target: IGF1R (human) (UniProt P08069)
[5] = molecular target: MAPK14 (human) (UniProt Q16539)
[6] = molecular target: BRSK2 (human) (UniProt Q8IWQ3)
[7] = molecular target: MKNK1 (human) (UniProt Q9BUB5)
[8] = molecular target: EPHB2 (human) (UniProt P29323)
[9] = molecular target: MAPK11 (human) (UniProt Q15759)
[10] = molecular target: NEK1 (human) (UniProt Q96PY6)
NEK1 (human), sequence (Q96PY6 whole entry, looked up): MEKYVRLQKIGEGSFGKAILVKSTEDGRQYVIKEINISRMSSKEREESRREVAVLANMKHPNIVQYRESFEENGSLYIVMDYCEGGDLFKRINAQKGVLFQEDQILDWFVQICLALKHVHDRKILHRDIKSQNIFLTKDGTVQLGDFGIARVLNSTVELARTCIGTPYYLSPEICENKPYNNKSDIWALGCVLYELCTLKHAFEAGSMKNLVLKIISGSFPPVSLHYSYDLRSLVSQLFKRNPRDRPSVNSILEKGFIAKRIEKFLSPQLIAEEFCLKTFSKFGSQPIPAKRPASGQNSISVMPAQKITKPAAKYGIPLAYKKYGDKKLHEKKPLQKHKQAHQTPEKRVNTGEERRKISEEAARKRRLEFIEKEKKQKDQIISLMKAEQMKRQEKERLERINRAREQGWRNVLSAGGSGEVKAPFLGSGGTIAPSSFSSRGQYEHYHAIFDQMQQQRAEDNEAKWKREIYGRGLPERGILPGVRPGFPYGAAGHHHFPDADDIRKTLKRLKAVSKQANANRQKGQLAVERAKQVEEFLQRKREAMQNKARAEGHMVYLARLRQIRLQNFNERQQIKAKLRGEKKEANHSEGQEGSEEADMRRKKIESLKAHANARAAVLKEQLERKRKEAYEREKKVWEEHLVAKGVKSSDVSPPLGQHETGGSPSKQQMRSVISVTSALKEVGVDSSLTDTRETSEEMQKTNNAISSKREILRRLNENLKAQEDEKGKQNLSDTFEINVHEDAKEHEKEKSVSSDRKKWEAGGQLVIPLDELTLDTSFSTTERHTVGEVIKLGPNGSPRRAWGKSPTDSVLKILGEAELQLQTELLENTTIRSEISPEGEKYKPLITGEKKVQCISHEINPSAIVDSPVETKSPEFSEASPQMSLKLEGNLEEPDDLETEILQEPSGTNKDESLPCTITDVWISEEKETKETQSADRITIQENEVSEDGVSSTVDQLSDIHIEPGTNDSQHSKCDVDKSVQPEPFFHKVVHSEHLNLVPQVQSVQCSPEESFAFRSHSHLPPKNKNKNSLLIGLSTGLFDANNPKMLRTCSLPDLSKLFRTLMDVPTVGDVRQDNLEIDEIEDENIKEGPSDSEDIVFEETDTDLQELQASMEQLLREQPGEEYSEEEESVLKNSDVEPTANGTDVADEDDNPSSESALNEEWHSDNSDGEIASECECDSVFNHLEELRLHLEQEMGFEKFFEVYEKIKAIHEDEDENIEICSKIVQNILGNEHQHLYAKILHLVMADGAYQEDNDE

[11] = molecular target: RPS6KA1 KD1 KD2 (human) (UniProt Q15418)
[12] = molecular target: RPS6KA4 KD1 KD2 (human) (UniProt O75676)
[13] = molecular target: TEK (human) (UniProt Q02763)
TEK (human), sequence (Q02763 whole entry, looked up): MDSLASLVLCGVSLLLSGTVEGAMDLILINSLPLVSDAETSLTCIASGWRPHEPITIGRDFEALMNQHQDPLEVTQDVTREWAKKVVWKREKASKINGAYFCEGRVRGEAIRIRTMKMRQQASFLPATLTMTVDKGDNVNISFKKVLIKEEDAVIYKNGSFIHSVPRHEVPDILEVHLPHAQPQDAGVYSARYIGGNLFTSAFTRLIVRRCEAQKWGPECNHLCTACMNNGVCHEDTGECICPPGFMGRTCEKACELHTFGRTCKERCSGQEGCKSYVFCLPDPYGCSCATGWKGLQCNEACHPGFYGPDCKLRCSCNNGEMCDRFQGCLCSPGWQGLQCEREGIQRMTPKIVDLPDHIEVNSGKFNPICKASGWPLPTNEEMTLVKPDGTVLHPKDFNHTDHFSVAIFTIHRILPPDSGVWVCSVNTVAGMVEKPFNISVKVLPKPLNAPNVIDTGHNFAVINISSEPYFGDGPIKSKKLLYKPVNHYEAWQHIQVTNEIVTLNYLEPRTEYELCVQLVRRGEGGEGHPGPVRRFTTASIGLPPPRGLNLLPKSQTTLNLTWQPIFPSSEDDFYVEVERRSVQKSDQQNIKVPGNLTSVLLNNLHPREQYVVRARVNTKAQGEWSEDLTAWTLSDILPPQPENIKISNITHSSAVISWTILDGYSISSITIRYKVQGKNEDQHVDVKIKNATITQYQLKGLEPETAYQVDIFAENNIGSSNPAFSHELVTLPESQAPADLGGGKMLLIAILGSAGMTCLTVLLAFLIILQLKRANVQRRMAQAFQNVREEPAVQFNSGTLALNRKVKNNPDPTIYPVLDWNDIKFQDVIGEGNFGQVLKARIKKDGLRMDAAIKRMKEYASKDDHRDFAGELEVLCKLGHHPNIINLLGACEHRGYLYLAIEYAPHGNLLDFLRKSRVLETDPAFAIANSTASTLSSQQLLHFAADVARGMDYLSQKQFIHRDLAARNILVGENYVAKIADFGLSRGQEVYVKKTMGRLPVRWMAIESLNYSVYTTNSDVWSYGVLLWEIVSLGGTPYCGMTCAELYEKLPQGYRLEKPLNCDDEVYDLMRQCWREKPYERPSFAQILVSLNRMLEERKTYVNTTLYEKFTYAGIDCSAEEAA

[14] = molecular target: CAMKK2 (human) (UniProt Q96RR4)
[15] = molecular target: STK24 (human) (UniProt Q9Y6E0)
[16] = molecular target: EPHA4 (human) (UniProt P54764)
[17] = molecular target: CAMK2G (human) (UniProt Q13555)
[18] = molecular target: CDK6 CCND3 (human) (UniProt Q00534+P30281)
CDK6 CCND3 (human), sequence (P30281 whole entry, looked up): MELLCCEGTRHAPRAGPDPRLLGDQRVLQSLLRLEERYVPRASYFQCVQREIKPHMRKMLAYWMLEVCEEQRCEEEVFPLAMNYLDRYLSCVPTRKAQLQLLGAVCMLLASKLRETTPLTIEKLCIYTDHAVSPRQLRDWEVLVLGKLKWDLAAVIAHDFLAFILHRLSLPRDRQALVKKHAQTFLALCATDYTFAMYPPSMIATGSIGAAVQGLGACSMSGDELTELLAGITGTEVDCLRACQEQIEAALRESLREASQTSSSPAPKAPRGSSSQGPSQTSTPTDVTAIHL
CDK6 CCND3 (human), sequence (Q00534 whole entry, looked up): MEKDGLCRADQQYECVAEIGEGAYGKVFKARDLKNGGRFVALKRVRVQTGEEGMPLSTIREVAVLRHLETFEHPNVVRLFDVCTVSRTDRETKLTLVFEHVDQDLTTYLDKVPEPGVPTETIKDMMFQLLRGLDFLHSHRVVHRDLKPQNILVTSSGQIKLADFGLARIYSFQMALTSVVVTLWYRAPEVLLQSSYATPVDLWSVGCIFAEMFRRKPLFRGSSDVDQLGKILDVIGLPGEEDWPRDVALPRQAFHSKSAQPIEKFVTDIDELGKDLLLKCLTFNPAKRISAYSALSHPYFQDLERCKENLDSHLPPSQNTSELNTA

[19] = molecular target: PRKCI (human) (UniProt P41743)
[20] = molecular target: STK38 (human) (UniProt Q15208)
[21] = molecular target: CDK5 CDK5R1 p25 (human) (UniProt Q15078+Q00535)
[22] = molecular target: MINK1 (human) (UniProt Q8N4C8)
[23] = molecular target: PAK3 (human) (UniProt O75914)
[24] = molecular target: TXK (human) (UniProt P42681)
[25] = molecular target: PTK2B (human) (UniProt Q14289)
[26] = molecular target: CDC42BPB (human) (UniProt Q9Y5S2)
[27] = molecular target: CLK1 (human) (UniProt P49759)
[28] = molecular target: GRK5 (human) (UniProt P34947)
[29] = molecular target: CLK3 (human) (UniProt P49761)
[30] = molecular target: PRKCE (human) (UniProt Q02156)
[31] = molecular target: ALK (human) (UniProt Q9UM73)
[32] = molecular target: MAP3K5 (human) (UniProt Q99683)
[33] = molecular target: CSNK1G3 (human) (UniProt Q9Y6M4)
[34] = molecular target: PRKCH (human) (UniProt P24723)
[35] = molecular target: HIPK1 (human) (UniProt Q86Z02)
[36] = molecular target: ABL1 (human) (UniProt P00519)
[37] = molecular target: FLT3 (human) (UniProt P36888)
[38] = molecular target: NEK7 (human) (UniProt Q8TDX7)
[39] = molecular target: STK33 (human) (UniProt Q9BYT3)
STK33 (human), sequence (Q9BYT3 whole entry, looked up): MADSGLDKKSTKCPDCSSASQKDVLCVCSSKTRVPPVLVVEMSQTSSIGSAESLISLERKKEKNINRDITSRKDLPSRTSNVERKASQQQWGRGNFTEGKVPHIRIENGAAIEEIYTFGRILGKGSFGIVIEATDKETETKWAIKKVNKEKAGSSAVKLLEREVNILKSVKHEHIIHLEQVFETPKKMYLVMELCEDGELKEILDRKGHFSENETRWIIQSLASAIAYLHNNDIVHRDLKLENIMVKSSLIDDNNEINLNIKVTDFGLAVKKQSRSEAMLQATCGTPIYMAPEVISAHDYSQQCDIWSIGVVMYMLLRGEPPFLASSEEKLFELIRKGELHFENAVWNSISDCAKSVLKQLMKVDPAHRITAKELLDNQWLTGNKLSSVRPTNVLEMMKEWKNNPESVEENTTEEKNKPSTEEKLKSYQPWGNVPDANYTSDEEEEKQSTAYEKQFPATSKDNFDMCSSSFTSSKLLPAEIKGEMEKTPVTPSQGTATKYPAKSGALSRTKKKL

[40] = molecular target: NEK2 (human) (UniProt P51955)
[41] = molecular target: CDK2 CCNE1 (human) (UniProt P24864+P24941)
CDK2 CCNE1 (human), sequence (P24864 whole entry, looked up, other chains not shown): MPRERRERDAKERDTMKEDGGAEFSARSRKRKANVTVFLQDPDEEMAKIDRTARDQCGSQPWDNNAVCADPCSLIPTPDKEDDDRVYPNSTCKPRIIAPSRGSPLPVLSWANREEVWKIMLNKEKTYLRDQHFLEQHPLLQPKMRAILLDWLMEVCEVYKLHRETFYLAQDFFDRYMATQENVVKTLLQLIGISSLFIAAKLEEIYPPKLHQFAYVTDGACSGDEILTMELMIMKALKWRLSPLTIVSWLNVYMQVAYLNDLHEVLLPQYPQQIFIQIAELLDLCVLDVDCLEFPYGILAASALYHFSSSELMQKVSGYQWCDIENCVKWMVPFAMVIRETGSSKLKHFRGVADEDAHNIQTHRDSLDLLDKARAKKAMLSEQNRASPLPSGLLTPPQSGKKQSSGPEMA

[42] = molecular target: IKBKB (human) (UniProt O14920)
[43] = molecular target: FGFR4 (human) (UniProt P22455)
[44] = molecular target: TSSK1B (human) (UniProt Q9BXA7)
TSSK1B (human), sequence (Q9BXA7 whole entry, looked up): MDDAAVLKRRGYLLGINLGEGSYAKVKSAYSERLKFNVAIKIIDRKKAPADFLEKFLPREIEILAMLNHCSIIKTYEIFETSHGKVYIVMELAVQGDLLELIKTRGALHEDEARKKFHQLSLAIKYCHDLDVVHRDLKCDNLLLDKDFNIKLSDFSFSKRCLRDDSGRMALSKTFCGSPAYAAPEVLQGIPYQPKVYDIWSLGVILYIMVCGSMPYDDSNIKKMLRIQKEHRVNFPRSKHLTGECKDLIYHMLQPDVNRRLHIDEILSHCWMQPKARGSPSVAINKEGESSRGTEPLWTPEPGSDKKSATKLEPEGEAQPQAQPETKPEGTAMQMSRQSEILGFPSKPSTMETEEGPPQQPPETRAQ

MAP3K3 (human), sequence (Q99759 whole entry, looked up): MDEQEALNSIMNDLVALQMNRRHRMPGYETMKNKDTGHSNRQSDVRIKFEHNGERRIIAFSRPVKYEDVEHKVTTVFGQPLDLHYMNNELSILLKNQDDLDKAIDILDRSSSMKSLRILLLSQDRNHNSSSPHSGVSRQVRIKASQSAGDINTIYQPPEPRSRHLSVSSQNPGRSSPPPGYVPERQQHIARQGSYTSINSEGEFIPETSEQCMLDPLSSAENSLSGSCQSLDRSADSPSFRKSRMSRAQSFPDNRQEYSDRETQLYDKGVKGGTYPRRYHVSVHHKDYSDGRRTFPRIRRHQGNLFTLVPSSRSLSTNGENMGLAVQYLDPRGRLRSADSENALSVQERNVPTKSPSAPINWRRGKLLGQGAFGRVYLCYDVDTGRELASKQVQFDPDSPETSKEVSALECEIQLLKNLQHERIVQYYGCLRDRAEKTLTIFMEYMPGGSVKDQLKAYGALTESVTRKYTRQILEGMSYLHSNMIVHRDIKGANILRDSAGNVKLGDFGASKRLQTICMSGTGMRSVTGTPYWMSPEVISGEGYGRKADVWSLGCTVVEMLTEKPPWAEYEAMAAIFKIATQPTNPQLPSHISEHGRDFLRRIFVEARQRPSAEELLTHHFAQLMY

With CC[C@H](C)n1cc(C)c2c(C(=O)NCc3c(C)cc(C)[nH]c3=O)cc(-c3ccc(N4CCNCC4)nc3)cc21 the residual activity [1] was 104%, the residual activity [2] was 88% and the residual activity [3] was 107%. For the same compound, the residual activity [4] was 96.5%, the residual activity [5] was 100% and the residual activity [6] was 103%. For the same compound, the residual activity [7] was 97%, the residual activity [8] was 95.5% and the residual activity [9] was 102%. It also gave a residual activity [10] of 96.5%, a residual activity [11] of 76% and a residual activity [12] of 90.5%. For the same compound, the residual activity [13] was 95.5%, the residual activity [14] was 98% and the residual activity [15] was 82%. It also gave a residual activity [16] of 92%, a residual activity [17] of 99.5% and a residual activity [18] of 102%. For the same compound, the residual activity [19] was 99.5%, the residual activity [20] was 97% and the residual activity [21] was 97.5%. For the same compound, the residual activity [22] was 106%, the residual activity [23] was 93.5% and the residual activity [24] was 85.5%. The residual activity [25] was 110%, the residual activity [26] was 101% and the residual activity [27] was 99%. For the same compound, the residual activity [28] was 101%, the residual activity [29] was 86% and the residual activity [30] was 99.5%. The residual activity [31] was 91.5%, the residual activity [32] was 102% and the residual activity [33] was 98%. For the same compound, the residual activity [34] was 103%, the residual activity [35] was 99% and the residual activity [36] was 84%. The residual activity [37] was 87.5%, the residual activity [38] was 99.5% and the residual activity [39] was 94.5%. It also gave a residual activity [40] of 103%, a residual activity [41] of 96% and a residual activity [42] of 102%. It also gave a residual activity [43] of 89% and a residual activity [44] of 102%.
